These are literature values, as cited in patent US8940506B2, “High-sensitive fluorescent energy transfer assay using fluoresent amino acids and fluorescent proteins” (The Regents of the University of California, priority 2008, dated 2015).

The test system of the data set is cancer cells. To be noted: by disrupting the interaction of ubiquitin E3 ligase MDM2 and its substrate p53.

Consider `COc1ccc(C2=N[C@@H](c3ccc(Cl)cc3)[C@@H](c3ccc(Cl)cc3)N2C(=O)N2CCNC(=O)C2)c(OC(C)C)c1` [Nutlin-3], for which the “apoptosis and growth inhibition of cancer cells” value was “induce apoptosis and growth inhibition of cancer cells”.
